Measurements taken from paper PMC11433014, “In Vitro In Silico Screening Strategy and Mechanism of Novel Tyrosinase Inhibitory Peptides from Nacre of Hyriopsis cumingii” (Marine Drugs, 2024).
“Also recorded” adds a separate entry of the source. Where no end group is shown, it is not given here.

Assays:
[1] = system: catalase (CAT); test: CAT activity in B16F10 cells; assay type: cell-based, mouse; conditions: 50 μg/mL (highest treatment concentration; Kojic acid 50 μg/mL)
Method: (§1) Cell culture and treatment methods were the same as described in Section 3.10. The activities of catalase (CAT), glutathione peroxidase (GSH-Px), and superoxide dismutase (SOD) were determined using the assay kit from Nanjing Jianjian Bioengineering Research Institute (Nanjing, China).

[2] = system: melanin production in B16F10 cells; test: Melanin content of B16F10 cells; assay type: cell-based, mouse; conditions: 50 μg/mL (highest treatment concentration; Kojic acid 50 μg/mL), 48 h, absorbance 405 nm, vs control
Method: Cells in the logarithmic growth phase were cultured at a density of 4 × 10^5 cells per well in 6-well plates. Following a 24 h incubation period, the culture supernatant was discarded. Experimental groups were established, including a control group, a positive control group treated with Kojic acid at a concentration of 50 µg/mL [40], and peptide-treated groups at concentrations of 10, 25, and 50 µg/mL. After an additional 24 h of incubation, the cells were lysed, and the resulting cell lysates were subjected to centrifugation at 12,000 rpm for 10 min. The reaction mixture was prepared by combining 50 µL of the cell lysate supernatant, 50 µL of 1 mg/mL L-DOPA, and 50 µL of PBS buffer. This mixture was incubated at 37 °C for 1 h. Subsequently, the level of dopamine formation was quantified spectrophotometrically at a wavelength of 475 nm.
The cell culture stage for melanin content determination was as follows: The cells were washed twice with PBS buffer after 48 h of peptide treatment. Trypsin digestion was performed, and the cells were collected. […] Then, 200 µL of the supernatant was transferred to a 96-well plate, and the absorbance was measured at 405 nm. The melanin content was then expressed as a percentage of the control group.

[3] = system: tyrosinase activity in B16F10 cells; test: Intracellular tyrosinase activity in B16F10 cells; assay type: cell-based, mouse; conditions: 50 μg/mL (highest treatment concentration; Kojic acid 50 μg/mL), 24 h, L-DOPA, 475 nm, vs control
Method: Cells in the logarithmic growth phase were cultured at a density of 4 × 10^5 cells per well in 6-well plates. Following a 24 h incubation period, the culture supernatant was discarded. Experimental groups were established, including a control group, a positive control group treated with Kojic acid at a concentration of 50 µg/mL [40], and peptide-treated groups at concentrations of 10, 25, and 50 µg/mL. After an additional 24 h of incubation, the cells were lysed, and the resulting cell lysates were subjected to centrifugation at 12,000 rpm for 10 min. The reaction mixture was prepared by combining 50 µL of the cell lysate supernatant, 50 µL of 1 mg/mL L-DOPA, and 50 µL of PBS buffer. This mixture was incubated at 37 °C for 1 h. Subsequently, the level of […] formation was quantified spectrophotometrically at a wavelength of 475 nm. The activity of tyrosinase was reported as a percentage relative to the blank control.

[4] = system: glutathione peroxidase (GSH-Px); test: GSH-Px activity in B16F10 cells; assay type: cell-based, mouse; conditions: 50 μg/mL (highest treatment concentration; Kojic acid 50 μg/mL)
Method: as §1

[5] = system: superoxide dismutase (SOD); test: SOD activity in B16F10 cells; assay type: cell-based, mouse; conditions: 50 μg/mL (highest treatment concentration; Kojic acid 50 μg/mL)
Method: as §1

[6] = biological target: T1, Tyrosinase (Agaricus bisporus, UniProt C7FF04); test: Tyrosinase inhibitory activity assay (mushroom tyrosinase, L-tyrosine substrate); assay type: biochemical; conditions: 0.5 mg/mL L-tyrosine, PBS, 20 μL tyrosinase (500 U/mL), preincubation 37 °C 10 min, reaction 10 min at 37 °C; mean ± SD of at least three experiments
T1 construct: purchased Shanghai Yuanye Biotechnology Co., Ltd. (Shanghai, China)
T1 sequence (C7FF04 1-392): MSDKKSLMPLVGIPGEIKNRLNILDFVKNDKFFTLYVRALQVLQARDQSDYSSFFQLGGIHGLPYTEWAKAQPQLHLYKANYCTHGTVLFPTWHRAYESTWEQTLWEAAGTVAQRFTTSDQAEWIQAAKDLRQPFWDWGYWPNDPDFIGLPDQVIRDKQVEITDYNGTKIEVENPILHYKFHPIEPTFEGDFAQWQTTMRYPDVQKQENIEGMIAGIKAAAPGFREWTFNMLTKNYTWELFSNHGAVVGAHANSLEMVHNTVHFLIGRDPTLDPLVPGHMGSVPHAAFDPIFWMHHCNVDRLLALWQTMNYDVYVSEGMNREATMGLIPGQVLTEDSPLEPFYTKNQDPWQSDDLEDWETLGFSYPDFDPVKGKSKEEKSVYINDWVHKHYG
Method: Tyrosinase (from Mushroom, 500 U/mg) and PBS buffer were purchased from Shanghai Yuanye Biotechnology Co., Ltd. (Shanghai, China). L-tyrosine was obtained from Shanghai Macklin Biochemical Technology Co., Ltd. (Shanghai, China).
A solution of L-tyrosine at a concentration of 0.5 mg/mL, along with the sample solution and PBS buffer, was sequentially introduced into a 96-well plate. The mixture was thoroughly homogenized and subsequently incubated at 37 °C for 10 min. Following this incubation, 20 μL of tyrosinase solution (500 U/mL) was added to each well, and the plate was promptly placed in an enzyme marker for a reaction period of (10 min ± 5 s) at 37 °C.

[7] = ABTS free radical scavenging capacity (kit); conditions: synthetic peptides, 1 mg/mL; ranking among the three peptides (p < 0.05)
Method: (§2) Use a concentration of 1 mg/mL of the enzymatic hydrolysate to assess the free radical scavenging rate. DPPH and ABTS free radical scavenging capacity assays were conducted using kits from Grace Biotechnology Co., Ltd. (Suzhou, Jiangsu, China). The subsequent determination of the inhibitory rate of peptide tyrosinase synthesis and the antioxidant measurement methods refer to this step.

[8] = DPPH free radical scavenging capacity (kit); conditions: synthetic peptides, 1 mg/mL; comparison among the three peptides, in words
Method: as §2

[9] = system: B16F10 cells; test: Cytotoxicity to B16F10 cells (CCK-8); assay type: cell-based, mouse; conditions: 10–800 μg/mL
Method: B16F10 cells were purchased from Hunan FengHui Biotechnology Co., Ltd. (Changsha, Hunan, China). Cell cultures of B16F10, specifically from generations 10 to 25, were maintained in a medium consisting of DMEM supplemented with 10% fetal bovine serum and 1% antibiotic–antifungal solution, under conditions of 5% CO2 at 37 °C.
Cell viability was evaluated utilizing the Cell Counting Kit-8 (CCK-8) assay. During the logarithmic growth phase, 100 µL of cell suspension, containing 3000 cells per well, was transferred into 96-well plates. Following a 24 h incubation period at 37 °C, the supernatant was discarded. Wells containing 100 µL of medium were designated as blank controls. […]

Compound | increase of CAT activity [1] | decrease of melanin content [2] | decrease of intracellular tyrosinase activity [3] | increase of GSH-Px activity [4] | increase of SOD activity [5] | IC50 [6] | ABTS radical scavenging ability (ranking) [7] | DPPH radical scavenging effect [8] | viability of B16F10 cells [9] | cytotoxicity / viability vs control group ([9]; in words)
O=c1cc(CO)occ1O [Kojic acid] | 32.04% | 17.39% | 16.64% | 25.56% | 68.81% | – | – | – | – | –
GYHFHSYP [GYHFHSYP, Gly-Tyr-His-Phe-His-Ser-Tyr-Pro] | – | – | – | – | – | > 5000 µM | GYHFHSYP > YPNPY > YVPGHG (p < 0.05) | remained consistent at a concentration of 1 mg/mL (p > 0.05) | – | –
YPNPY [YPNPY, Tyr-Pro-Asn-Pro-Tyr] | – | – | – | – | – | 545 ± 28 µM | – | – | ~100% | no significant difference in the viability of B16F10 cells; also recorded: did not exhibit any cytotoxic effects
YVPGHG [YVPGHG, Tyr-Val-Pro-Gly-His-Gly] | – | – | – | – | – | > 50000 µM | GYHFHSYP > YPNPY > YVPGHG (p < 0.05) | remained consistent at a concentration of 1 mg/mL (p > 0.05) | – | –
